In data set [1] the test system is cisplatin cytotoxicity. The note with it: in vitro; cited from earlier work.
Data set [2] relates to cisplatin cytotoxicity. The note with it: in vivo; cited from earlier work.
The subject of data set [3] is CH1. As to the kind of experiment: cytotoxicity assay, sulforhodamine B. Type of data set: cell-based, human. The note with it: 96 hrs, mean ± SD or individual values when n<3. Here is the method:
(§1) In Table 2, reference is made to cell lines 41M, 41M-cisR, SKOV-3, CH1 and CH1-cisR.
(§2) J. Cancer 69 1-7. The characteristics of the cell line pairs CH1/CH1 cisR, 41M/41McisR and 41M/SKOV3 are described in Table 3.
(§3) The cytotoxicity assay used sulforhodamine B which stains the basic amino acids. Cells (5000 or 2500 for SKOV-3) were seeded into 96 well microtitre plates (Linbro, Flow Laboratories Inc., USA) in 0.1 ml of medium. After an overnight incubation, the metal phosphine compounds were dissolved in 0.9% NaCl or ethanol and diluted with medium, were added at concentrations ranging from 0.005 to 50 μM to quadruplicate wells. After 96 hrs incubation, the medium was removed and cells were fixed in 0.2 ml of cold 10% (w/v) trichloroacetic acid (May & Baker Ltd., Dagenham, England) for 30 mins at 4° C. The plates were washed five times with tap water. Then 0.1 ml of 0.4% (w/v) sulforhodamine B (Sigma Chemical Co., St. Louis, USA) dissolved in 1% acetic acid (Ajax Chemicals, Australia) was added to the wells and left to stand at room temperature for 15 mins. The plates were then washed five times with 1% acetic acid and left to dry overnight. The next morning, 0.1 ml of 10 mM Tris buffer (Sigma Chemical Co., St. Louis, USA) was then added to each plate to solubilise the dye. Absorbance was read at a wavelength of 570 nm using a 96 well plate reader Dynatech MR 5000 plate reader. Absorbance of treatment cells was expressed as a percentage of positive (drug-free) controls. The results were plotted as percentage growth versus drug concentration.

The test system of data set [4] is 41M-cisR. Briefly: cytotoxicity assay, sulforhodamine B. Format: cell-based, human. The note with it: 96 hrs, mean ± SD or individual values when n<3. On the procedure: as §1, §2, §3
Data set [5] concerns 41M. As to the kind of experiment: cytotoxicity assay, sulforhodamine B. The note with it: 96 hrs, mean ± SD or individual values when n<3. Format: cell-based, human. On the procedure:
as §1, §2, §3

The subject of data set [6] is SKOV-3. Briefly: cytotoxicity assay, sulforhodamine B. The note with it: 96 hrs, mean ± SD or individual values when n<3. Format: cell-based, human. On the procedure: as §1, §2, §3
The subject of data set [7] is CH1-cisR. Briefly: cytotoxicity assay, sulforhodamine B. Format: cell-based, human. The note with it: 96 hrs, mean ± SD or individual values when n<3. Here is the method:
as §1, §2, §3

The subject of data set [8] is 41M, 41M-cisR, SKOV-3, CH1, CH1-cisR. Briefly: growth inhibition of cisplatin-sensitive and -resistant ovarian cancer cell lines (Table 2, FIG. 5). Type of data set: cell-based, human.
Excerpt: (§4) The sensitive CH1 cell line was established from a patient with drug-sensitive disease and its resistant variant (CH1-cisR) was generated by prolonged in vitro exposure to cisplatin during which it acquired more efficient DNA repair as described in Kelland et al., 1992, Cancer Research 52 3857-3864. The sensitive 41M cell line was also established from a patient with a sensitive tumor and its resistant variant (41M-cisR) was generated in the same way but acquired decreased uptake across the cell membrane (Kelland et al., 1992, supra). The intrinsically-resistant SKOV-3 ovarian carcinoma cell line has high glutathione levels as described in Mistry et al., 1991, Brit. J. Cancer 64 215-220 and reduced levels of bi-functional cisplatin-DNA lesions as described in McKeage et al., 1994, Brit. J. Cancer 69 1-7. The characteristics of the cell line pairs CH1/CH1 cisR, 41M/41McisR and 41M/SKOV3 are described in Table 3.
as §3, with “concentration. The drug concentration resulting in a 50% growth inhibition was termed the IC50. The passage numbers used for the cytotoxicity assay from each cell line were, CH1 passages 50-58, CH1 cis-R passages 77-83, 41M passages 50-63, 41M cisR 81-92 and SKOV-3 passages 106-128.” for “concentration.”

Data set [9] concerns HeLa-S1a. Briefly: cell survival after drug treatment ([methyl-3H]-thymidine). Type of data set: cell-based, human. From the text: (§5) In FIGS. 1-4 and Table 1, reference is made to the cell lines HeLa, HeLa-S1a, JAM, CI-80-13S and MM96.
(§6) The origins of the human melanoma cell line MM96 has been described in Whitehead et al., 1973, Pigment Cell 1 383-389. The cell line JAM is described in Ward et al., 1987, Cancer Res. 47 2662-2667. The origin of the ovarian tumour line CI-80-13S has been described in Bertoncello et al., 1985, Aust. J. Exp. Biol. Med. Sci. 63 241-243. The origin of the cervical carcinoma cell line HeLa has been described in Maynard et al., 1986, Cancer Res. 46 5009-5093. The subclone HeLa-S1a was derived by stably transfecting HeLa with PAI-2 cDNA described in Schleuning et al., 1987, Mol. Cell. Biol. 7 4564-4567 in the sense orientation under the control of the cyto-megalovirus (CMV) promoter. The stably infected subclone was isolated following G418 selection and expression of the PAI-2 transgene characterised by immunoblot analysis and quantitated by ELISA. All of these cell lines have been used before for carrying out cell survival assays referred to in FIGS. 1-4. Cells were cultured at 37° in 5% CO2 /air in Roswell Park Memorial Institute medium 1640 containing 5% foetal calf serum, 100 μg/ml streptomycin, 100 IU/ml penicillin, 1 mM pyruvate, 50 μM nicotinamide and 3 mM HEPES.
(§7) Cells were seeded in microtitre plates (lowest number for fastest growing cells: 1000 HeLa, 2000 MM96, […] CI-80-13S cells per 6 mm well in 100 μl), normally but not necessarily allowed to attach overnight, then 5 dilutions of the drug were added to duplicate wells. After an overnight incubation to equilibrate the pH, the lids were quickly taped around the edge to prevent evaporation. The plates were incubated for 5-7 days, until the controls were nearly confluent. Cell growth/morphology was scored at each dose visually (inverted microscope). The medium was then replaced by 50 μl fresh medium containing 2 u/Ci/ml [methyl-3H]-thymidine (5 Ci/mmol; Radiochemical Centre, Amersham, Bucks., U.K.) and incubated for 2-4 hr. The cells were washed with PBS (0.1 M NaCl, 50 mM phosphate, pH 7.2), detached with 100 μl of PBS containing 0.2 mg/ml trypsin and 10 mM EDTA, and washed onto a glass fibre GF/a filter mat with water using a cell harvester. Later, wells were checked under the microscope to ensure complete detachment and washout. Radioactivity was determined in an LKB Beta Plate counter and the results plotted as log % control cpm versus dose. The ID50 (dose required to give 50% survival) was interpolated from this survival curve.

Data set [10] deals with MM96. Described as above. Format: cell-based, human.
Excerpt: as §5, §6, §7

Data set [11] has as its system HeLa. Described as above. Type of data set: cell-based, human.
Excerpt: as §5, §6, §7

The test system of data set [12] is CI-80-13S. The data set is described as above. Type of data set: cell-based, human.
Excerpt: as §5, §6, §7

Data set [13] has as its system human tumour cell lines. Briefly: selectivity of cytotoxicity over all cell lines evaluated (Tables 1 and 2). Format: cell-based.
Excerpt: as §6, §7, §4
The cytotoxicity assay used sulforhodamine B which stains the basic amino acids. Cells (5000 or 2500 for SKOV-3) were seeded into 96 well microtitre plates (Linbro, Flow Laboratories Inc., USA) in 0.1 ml of medium. After an overnight incubation, the metal phosphine compounds were dissolved in 0.9% NaCl or ethanol and diluted with medium, were added at concentrations ranging from 0.005 to 50 μM to quadruplicate wells. After 96 hrs incubation, the medium was removed and cells were fixed in 0.2 ml of cold 10% (w/v) trichloroacetic acid (May & Baker Ltd., Dagenham, England) for 30 mins at 4° C. The plates were washed five times with tap water. […]

The subject of data set [14] is four human tumour cell lines (MM96, HeLa, CI-80-13S, HeLa-S1a). Briefly: cytotoxicity against four human tumour cell lines in vitro (FIGS. 3 and 4). Format: cell-based.
Excerpt: as §6, §7
We have tested the following compounds of formula (III) against the four human tumour cell lines described above, i.e.: […]

Structures are written as SMILES. Like-named read-outs stand apart in the source and are kept apart here.

Results on 6 compounds are retold here after patent US6218378A, “Anti-tumor agents comprising pyridyl-substituted metal-diphosphine complex” (priority 1994, dated 2001).

In the case of `Cc1cc(N)c2ccccc2[n+]1CCCCCCCCCC[n+]1c(C)cc(N)c2ccccc21` [delqualinium], the “enhancement of cisplatin cytotoxicity” value in [1] and in data set [2] was “enhance cisplatin cytotoxicity” throughout.

The IC50 is the concentration needed to halve the response being measured. Regarding `Cl.c1cncc([P+]2(c3cccnc3)CC[P+](c3cccnc3)(c3cccnc3)[Cu-3]23[P+](c2cccnc2)(c2cccnc2)CC[P+]3(c2cccnc2)c2cccnc2)c1` [[Cu(d3pype)2]Cl], the IC50 in data set [3] was 3 µM; in [4], 30 µM; in data set [5], more than 50 µM; in data set [6] it was more than 50 µM.

For `[Au+].[Au+].[Cl-].[Cl-].c1cncc(P(CCP(c2cccnc2)c2cccnc2)c2cccnc2)c1.c1cncc(P(CCP(c2cccnc2)c2cccnc2)c2cccnc2)c1` [[Au2 (d3pype)2 Cl2]], the 50% inhibitory concentration (IC50) in data set [3] came to 0.9 ± 0.4 µM; in data set [4], 47 µM; in data set [5] it was 70 ± 12 µM; in [6], 71 ± 12 µM; in [7], 0.5 ± 0.1 µM; in data set [9] (HeLa-S1a, mean ± SD or individual values when n<3, 5-7 days), 0.4 µM. Besides, the half-maximal inhibitory concentration (IC50) in [10] (MM96L, mean ± SD or individual values when n<3, 5-7 days) was 56 µM; in [11] (HeLa, mean ± SD or individual values when n<3, 5-7 days) it was 38 µM; in data set [12] (CI-80-13S, mean ± SD or individual values when n<3, 5-7 days), 0.4 µM. For the same compound, the “sensitivity of cisplatin resistant cells versus non-resistant cells” value in [8] (41M/41M-cisR and CH1/CH1-cisR pairs) is on record as “consistently more sensitive”. Besides, the “cytotoxicity (FIGS. 1 and 2)” value in [9] (HeLa-S1a in vitro) was “selectively cytotoxic”; in [10] (MM96 melanoma in vitro), “inactive”; in data set [11] (HeLa cervical carcinoma in vitro) it was “inactive”; in [12] (CI-80-13S ovarian in vitro) it was “selectively cytotoxic”.

With `[Au+].[Cl-].c1ccc(P(CCP(c2ccccc2)c2ccccn2)c2ccccn2)cc1.c1ccc(P(CCP(c2ccccc2)c2ccccn2)c2ccccn2)cc1` (stereo not drawn) [[Au(2-pyppe)2]Cl], the concentration for half-maximal inhibition (IC50) in data set [4] came to 0.1 µM; in [5], 0.1 µM; in data set [6], 0.2 µM. Further, in [8] (96h incubation), the “selectivity and cytotoxicity in ovarian cancer cell-lines (FIG. 5)” value is “cytotoxic to the 41M pair and the resistant SKOV-3”. In addition, in data set [13], the “number of cell lines against which cytotoxic” value is reported as “cytotoxic to all the cell lines evaluated”. In data set [13] (Tables 1 and 2), the degree of selectivity result is listed as “the least selectivity”.

As to `O=[N+]([O-])[O-].O=[N+]([O-])[O-].[Ag+].[Ag+].c1ccc(P(CCP(c2ccccn2)c2ccccn2)c2ccccn2)nc1.c1ccc(P(CCP(c2ccccn2)c2ccccn2)c2ccccn2)nc1.c1ccc(P(CCP(c2ccccn2)c2ccccn2)c2ccccn2)nc1.c1ccc(P(CCP(c2ccccn2)c2ccccn2)c2ccccn2)nc1` [[Ag2 (d2pype)4](NO3)2], the “cytotoxicity (FIGS. 3 and 4)” value in data set [14] (all four cell lines) is given as “cytotoxic to all four cell lines”. For the same compound, the “selectivity against the cisplatin-resistant lines” value in data set [14] (compared with formula (I) or (V), R=4-pyridyl and 3-pyridyl) is given as “do not show the same selectivity”.

As to `Cl.c1cncc([P+]2(c3cccnc3)CC[P+](c3cccnc3)(c3cccnc3)[Au-3]23[P+](c2cccnc2)(c2cccnc2)CC[P+]3(c2cccnc2)c2cccnc2)c1` [[Au(d3pype)2]Cl], the half-inhibitory concentration (IC50) in data set [3] was 1.5 µM; in [4] it was 11 µM; in data set [5], more than 25 µM; in data set [6] it was more than 25 µM; in data set [7], 10 µM.
